Laboratory results published in patent publication US20240358692A1, “TREATMENT OF SCLERODERMA” (Aisa Pharma, Inc., priority 2023, published 2024).

Legend:
participants with SSc-RP [1] = experiment: Average duration of weekly RP attacks (minutes), patient diary; format: in vivo, human; conditions: Pooled Cilnidipine
Excerpt: The absolute change in average duration of weekly RP attacks from baseline to the end of each dosing period was and will be a secondary outcome variable. The sponsor-developed participant-informed diary was and will be used to record data. Average duration of weekly RP attacks is defined as the total duration of RP attacks divided by total number of RP attacks within the last 7 days of each dosing period. Total duration of RP attacks during the last 7 days of screening period divided by the total number of RP attacks will be used as baseline for the analysis of all periods. The variable will be calculated similar to frequency data as before.

participants with SSc-RP [2] = experiment: SHAQ - Visual Analog Scale - Intestinal Problems; format: in vivo, human; design: Visual Analog Scale-Intestinal Problems, In Clinic Visit (Day 12), Mean / Visual Analog Scale-Intestinal Problems, In Clinic Visit (Day 12), Median / Visual Analog Scale-Intestinal Problems, Change from Baseline, Mean / Visual Analog Scale-Intestinal Problems, Change from Baseline, Median / SHAQ Visual Analogue Scale - Intestinal Problems, In-Clinic Visit (Day 12), Median: scale not given here
Excerpt: The standard, validated, patient reported outcome measures tool for SSc patients, the Scleroderma Health Assessment Questionnaire (SHAQ), will be used to assess the participant qualify of life. Details are attached in the Appendix. The participant quality of life will be scored, and a disability index calculated for each questionnaire completed by the patient at Screening and each in-clinic visit. The absolute change in participant quality of life from baseline to the end of each dosing period will be calculated similar to frequency data as before.
The standard, validated, patient reported outcome measures tool for SSc patients, the SHAQ, was collected at the time points specified in the study schedules (FIG. 2 and FIGS. 4A and 4B) to assess the participant's quality of life. The SHAQ included a Raynaud's VAS that will also be reported separately.

[3] = ITT Population - Part A, last 7 days of dosing period
[4] = by Baseline RCS, first RCS subgroup of table (not named), ITT Population - Part A
[5] = by Baseline RCS, first subgroup of table, ITT Population - Part A
[6] = excluding outliers, 1st baseline RCS subgroup, ITT Part A
[7] = Any Cilnidipine (N = 17), Day 12, PP Population, Part A
[8] = Cilnidipine 10 mg, SSc patients, PP, Part A
[9] = Cilnidipine 20 mg, SSc patients, PP, Part A

COCCOC(=O)C1=C(C)NC(C)=C(C(=O)OC/C=C/c2ccccc2)C1c1cccc([N+](=O)[O-])c1 (stereo not drawn) [Cilnidipine]
Average Duration of Weekly RP Attacks (All Attacks), Change from Baseline, Mean (participants with SSc-RP [1]; ITT Population - Part A): -3.55 min
Average Duration of Weekly RP Attacks (All Attacks), Change from Baseline, Median (participants with SSc-RP [1]; ITT Population - Part A): -7.63 min
Average Duration of Weekly RP Attacks (All Attacks), Percent Change from Baseline, Mean (participants with SSc-RP [1]; ITT Population - Part A): −23.71%
Average Duration of Weekly RP Attacks (All Attacks), Percent Change from Baseline, Median (participants with SSc-RP [1]; ITT Population - Part A): −21.20%
Average Duration of Weekly RP Attacks (All Attacks), Mean (participants with SSc-RP [1]; [3]): 21.66 min
Average Duration of Weekly RP Attacks (All Attacks), Median (participants with SSc-RP [1]; [3]): 30.45 min
Average Duration of weekly symptomatic RP attacks, Mean (participants with SSc-RP [1]; [4]): 21.70 min
Average Duration of weekly symptomatic RP attacks, Median (participants with SSc-RP [1]; [4]): 30.45 min
Change from Baseline in average duration of weekly symptomatic RP attacks, Mean (participants with SSc-RP [1]; [4]): -7.67 min
Change from Baseline in average duration of weekly symptomatic RP attacks, Median (participants with SSc-RP [1]; [4]): -10.33 min
Percent Change from Baseline in average duration of weekly symptomatic RP attacks, Mean (participants with SSc-RP [1]; [4]): −32.23%
Percent Change from Baseline in average duration of weekly symptomatic RP attacks, Median (participants with SSc-RP [1]; [4]): −34.60%
Average Duration of Weekly RP Attacks (All Attacks), Mean (participants with SSc-RP [1]; [5]): 21.66 min
Average Duration of Weekly RP Attacks (All Attacks), Median (participants with SSc-RP [1]; [5]): 30.45 min
Average duration of weekly RP attacks, Change from Baseline, Median (participants with SSc-RP [1]; [6]): -7.63 min
Average duration of weekly RP attacks, Percent Change from Baseline, Mean (participants with SSc-RP [1]; [6]): −23.71%
SHAQ Visual Analogue Scale - Intestinal Problems, Change from Baseline, Mean (SD) (participants with SSc-RP [2]; [7]): −0.556 (1.7427)
SHAQ Visual Analogue Scale - Intestinal Problems, Change from Baseline, Median (participants with SSc-RP [2]; [7]): −0.100
SHAQ Visual Analogue Scale - Intestinal Problems, In-Clinic Visit (Day 12), Mean (SD) (participants with SSc-RP [2]; [7]): 1.121 (1.4119)
SHAQ Visual Analogue Scale - Intestinal Problems, In-Clinic Visit (Day 12), Median (participants with SSc-RP [2]; [7]): 0.600
SHAQ Visual Analogue Scale - Intestinal Problems, Percent Change from Baseline, Mean (SD) (participants with SSc-RP [2]; [7]): −18.65 (93.767) %
SHAQ Visual Analogue Scale - Intestinal Problems, Percent Change from Baseline, Median (participants with SSc-RP [2]; [7]): −54.13%
SHAQ VAS Intestinal Problems, Change from Baseline, Max (participants with SSc-RP [2]; [8]): 0.00
SHAQ VAS Intestinal Problems, Change from Baseline, Median (participants with SSc-RP [2]; [8]): −1.550
SHAQ VAS Intestinal Problems, Change from Baseline, Min (participants with SSc-RP [2]; [8]): −4.40,
SHAQ VAS Intestinal Problems, Change from Baseline, Q1 (participants with SSc-RP [2]; [8]): −3.700,
SHAQ VAS Intestinal Problems, Change from Baseline, Q3 (participants with SSc-RP [2]; [8]): −0.050
SHAQ VAS Intestinal Problems, Day 12, Max (participants with SSc-RP [2]; [8]): 3.80
SHAQ VAS Intestinal Problems, Day 12, Mean (participants with SSc-RP [2]; [8]): 1.100
SHAQ VAS Intestinal Problems, Day 12, Median (participants with SSc-RP [2]; [8]): 0.300
SHAQ VAS Intestinal Problems, Day 12, Min (participants with SSc-RP [2]; [8]): 0.00,
SHAQ VAS Intestinal Problems, Day 12, Q1 (participants with SSc-RP [2]; [8]): 0.000,
SHAQ VAS Intestinal Problems, Day 12, Q3 (participants with SSc-RP [2]; [8]): 2.200
SHAQ VAS Intestinal Problems, Percent Change from Baseline, Max (participants with SSc-RP [2]; [8]): −44.1
SHAQ VAS Intestinal Problems, Percent Change from Baseline, Median (participants with SSc-RP [2]; [8]): −88.00
SHAQ VAS Intestinal Problems, Percent Change from Baseline, Min (participants with SSc-RP [2]; [8]): −100.0,
SHAQ VAS Intestinal Problems, Percent Change from Baseline, Q1 (participants with SSc-RP [2]; [8]): −100.00,
SHAQ VAS Intestinal Problems, Percent Change from Baseline, Q3 (participants with SSc-RP [2]; [8]): −44.12
SHAQ VAS Intestinal Problems, Change from Baseline, Max (participants with SSc-RP [2]; [9]): 0.60
SHAQ VAS Intestinal Problems, Change from Baseline, Mean (participants with SSc-RP [2]; [9]): 0.150
SHAQ VAS Intestinal Problems, Change from Baseline, Median (participants with SSc-RP [2]; [9]): 0.150
SHAQ VAS Intestinal Problems, Change from Baseline, Min (participants with SSc-RP [2]; [9]): −0.30,
SHAQ VAS Intestinal Problems, Change from Baseline, Q1 (participants with SSc-RP [2]; [9]): −0.150,
SHAQ VAS Intestinal Problems, Change from Baseline, Q3 (participants with SSc-RP [2]; [9]): 0.450
SHAQ VAS Intestinal Problems, Day 12, Max (participants with SSc-RP [2]; [9]): 2.10
SHAQ VAS Intestinal Problems, Day 12, Mean (participants with SSc-RP [2]; [9]): 0.850
SHAQ VAS Intestinal Problems, Day 12, Median (participants with SSc-RP [2]; [9]): 0.650
SHAQ VAS Intestinal Problems, Day 12, Min (participants with SSc-RP [2]; [9]): 0.00,
SHAQ VAS Intestinal Problems, Day 12, Q1 (participants with SSc-RP [2]; [9]): 0.000,
SHAQ VAS Intestinal Problems, Day 12, Q3 (participants with SSc-RP [2]; [9]): 1.700
SHAQ VAS Intestinal Problems, Percent Change from Baseline, Max (participants with SSc-RP [2]; [9]): 40.0
SHAQ VAS Intestinal Problems, Percent Change from Baseline, Mean (participants with SSc-RP [2]; [9]): −10.00
SHAQ VAS Intestinal Problems, Percent Change from Baseline, Min (participants with SSc-RP [2]; [9]): −100.0,
SHAQ VAS Intestinal Problems, Percent Change from Baseline, Q1 (participants with SSc-RP [2]; [9]): −100.00,
SHAQ VAS Intestinal Problems, Percent Change from Baseline, Q3 (participants with SSc-RP [2]; [9]): 40.00
SHAQ Intestinal Difficulty, mean % change (participants with SSc-RP [2]; Cilnidipine, pooled, n = 7 (in column Cilnidipine 20 mg), minus = improvement, Table A*): −45% (pooled,
Visual Analog Scale-Intestinal Problems, Percent Change from Baseline, Median (participants with SSc-RP [2]; Modified ITT Population-Part A, Day 12, dose cilnidipine 10 mg, tadalafil 5 mg, alone or combined as labelled): −88.00%
